# According to ChEMBL document CHEMBL3046191, “Strong resistance to phosphine in the rusty grain beetle, Cryptolestes ferrugineus (Stephens) (Coleoptera: Laemophloeidae): its characterisation, a rapid assay for diagnosis and its distribution in Australia” (2013):
# Columns and labels:
# [1] = system: Cryptolestes ferrugineus; experiment: Insecticidal activity against phosphine-weakly resistant Cryptolestes ferrugineus (rusty grain beetle) Lab-WR after 72 hr by FAO method
# [2] = system: Cryptolestes ferrugineus; experiment: Insecticidal activity against phosphine-weakly resistant Cryptolestes ferrugineus (rusty grain beetle) Lab-WR after 48 hr by FAO method
# [3] = system: Cryptolestes ferrugineus; experiment: Insecticidal activity against Cryptolestes ferrugineus (rusty grain beetle) Lab-S after 72 hr by FAO method
# [4] = system: Cryptolestes ferrugineus; experiment: Insecticidal activity against Cryptolestes ferrugineus (rusty grain beetle) Lab-S after 48 hr by FAO method
# [5] = system: Cryptolestes ferrugineus; experiment: Insecticidal activity against phosphine-resistant Cryptolestes ferrugineus (rusty grain beetle) Lab-StR after 72 hr by FAO method
# [6] = system: Cryptolestes ferrugineus; experiment: Insecticidal activity against phosphine-resistant Cryptolestes ferrugineus (rusty grain beetle) Lab-StR after 48 hr by FAO method
# [7] = system: Cryptolestes ferrugineus; experiment: whole plant or invertebrate; details: QQCF691, 144 h
# Description: Insecticidal activity against strongly phosphine-resistant Cryptolestes ferrugineus (rusty grain beetle) QQCF691 after 144 hr by FAO method
# [8] = system: Cryptolestes ferrugineus; experiment: whole plant or invertebrate; details: QNCF134, 144 h
# Description: Insecticidal activity against strongly phosphine-resistant Cryptolestes ferrugineus (rusty grain beetle) QNCF134 after 144 hr by FAO method
# [9] = system: Cryptolestes ferrugineus; experiment: whole plant or invertebrate; details: QNCF130, 144 h
# Description: Insecticidal activity against strongly phosphine-resistant Cryptolestes ferrugineus (rusty grain beetle) QNCF130 after 144 hr by FAO method
# [10] = system: Cryptolestes ferrugineus; experiment: whole plant or invertebrate; details: QNCF129, 144 h
# Description: Insecticidal activity against strongly phosphine-resistant Cryptolestes ferrugineus (rusty grain beetle) QNCF129 after 144 hr by FAO method
# [11] = system: Cryptolestes ferrugineus; experiment: whole plant or invertebrate; details: QNCF122, 144 h
# Description: Insecticidal activity against strongly phosphine-resistant Cryptolestes ferrugineus (rusty grain beetle) QNCF122 after 144 hr by FAO method
# [12] = system: Cryptolestes ferrugineus; experiment: whole plant or invertebrate; details: QNCF110, 144 h
# Description: Insecticidal activity against strongly phosphine-resistant Cryptolestes ferrugineus (rusty grain beetle) QNCF110 after 144 hr by FAO method
# [13] = system: Cryptolestes ferrugineus; experiment: whole plant or invertebrate; details: QNCF104, 144 h
# Description: Insecticidal activity against strongly phosphine-resistant Cryptolestes ferrugineus (rusty grain beetle) QNCF104 after 144 hr by FAO method
# [14] = system: Cryptolestes ferrugineus; experiment: whole plant or invertebrate; details: QNCF102, 144 h
# Description: Insecticidal activity against strongly phosphine-resistant Cryptolestes ferrugineus (rusty grain beetle) QNCF102 after 144 hr by FAO method
# [15] = system: Cryptolestes ferrugineus; experiment: whole plant or invertebrate; details: QNCF101, 144 h
# Description: Insecticidal activity against strongly phosphine-resistant Cryptolestes ferrugineus (rusty grain beetle) QNCF101 after 144 hr by FAO method
# [16] = system: Cryptolestes ferrugineus; experiment: whole plant or invertebrate; details: QNCF83, 144 h
# Description: Insecticidal activity against strongly phosphine-resistant Cryptolestes ferrugineus (rusty grain beetle) QNCF83 after 144 hr by FAO method
# [17] = system: Cryptolestes ferrugineus; experiment: whole plant or invertebrate; details: Lab-WR, 144 h
# Description: Insecticidal activity against phosphine-weakly resistant Cryptolestes ferrugineus (rusty grain beetle) Lab-WR after 144 hr by FAO method
# [18] = system: Cryptolestes ferrugineus; experiment: whole plant or invertebrate; details: Lab-StR, 144 h
# Description: Insecticidal activity against phosphine-resistant Cryptolestes ferrugineus (rusty grain beetle) Lab-StR after 144 hr by FAO method
# [19] = system: Cryptolestes ferrugineus; experiment: whole plant or invertebrate; details: Lab-S, 144 h
# Description: Insecticidal activity against Cryptolestes ferrugineus (rusty grain beetle) Lab-S after 144 hr by FAO method
compound,measurement,setting,value
P [PHOSPHINE],LC50,[1],0.037 µg/mL
same,LC50,[2],0.056 µg/mL
same,LC50,[3],0.004 µg/mL
same,LC50,[4],0.005 µg/mL
same,LC50,[5],6.37 µg/mL
same,LC50,[6],6.57 µg/mL
same,LC50,[7],1.34 µg/mL
same,LC50,[8],1.22 µg/mL
same,LC50,[9],1.42 µg/mL
same,LC50,[10],1.5 µg/mL
same,LC50,[11],1.77 µg/mL
same,LC50,[12],0.97 µg/mL
same,LC50,[13],1.21 µg/mL
same,LC50,[14],1.31 µg/mL
same,LC50,[15],1.12 µg/mL
same,LC50,[16],1.3 µg/mL
same,LC50,[17],0.022 µg/mL
same,LC50,[18],1.66 µg/mL
same,LC50,[19],0.003 µg/mL
